Entries after “also recorded” stand apart in the source; their conditions may differ. Read-outs that look alike come from different tables or passages of the source.
Tests used:
MDA-MB-435 = assay: NCI human cancer cell line screen (COMPARE screening), Breast MDA-MB-435; type: cell-based
From the text: (§1) Considering the diversity of cancer in terms of cell type, morphology, growth rate and other cellular characteristics, the U.S. National Cancer Institute (NCI) has developed a “disease-oriented” approach to anticancer activity screening (M. R. Boyd, in “Principle of Practice of Oncology” […]. Rosenberg (Eds.) Vol. 3, PPO Update, No. 10, 1989). This in vitro prescreening system is based on the measurement of anticancer cytotoxicity against human cancer cell line panels consisting of approximately 60 cell lines of major human cancers (including leukemia and slower growing tumor cells such as lung, colon, breast, skin, kidney, etc.) and is referred hereinafter as “COMPARE” screening. An important advantage of the new in vitro screening panels is the opportunity to facilitate identification of compounds that are selectively more cytotoxic to cells of certain types of cancers, thus increasing the ability to select compounds for further study with respect to specific diseases. The indenoisoquinolines were examined for antiproliferative activity against the human cancer cell lines in the National Cancer Institute screen (COMPARE screening), in which the activity of each compound was evaluated with approximately […] different cancer cell lines of diverse tumor origins.

topoisomerase I = molecular target: T1, topoisomerase I (Homo sapiens, UniProt P11387); assay: Topoisomerase I-mediated DNA cleavage assay (3'-end-labeled 161 bp pBluescript SK(-) fragment); type: biochemical; conditions: for Top 1 Cleavage: relative to the activity of 1 μM camptothecin
T1 sequence (P11387 1-765): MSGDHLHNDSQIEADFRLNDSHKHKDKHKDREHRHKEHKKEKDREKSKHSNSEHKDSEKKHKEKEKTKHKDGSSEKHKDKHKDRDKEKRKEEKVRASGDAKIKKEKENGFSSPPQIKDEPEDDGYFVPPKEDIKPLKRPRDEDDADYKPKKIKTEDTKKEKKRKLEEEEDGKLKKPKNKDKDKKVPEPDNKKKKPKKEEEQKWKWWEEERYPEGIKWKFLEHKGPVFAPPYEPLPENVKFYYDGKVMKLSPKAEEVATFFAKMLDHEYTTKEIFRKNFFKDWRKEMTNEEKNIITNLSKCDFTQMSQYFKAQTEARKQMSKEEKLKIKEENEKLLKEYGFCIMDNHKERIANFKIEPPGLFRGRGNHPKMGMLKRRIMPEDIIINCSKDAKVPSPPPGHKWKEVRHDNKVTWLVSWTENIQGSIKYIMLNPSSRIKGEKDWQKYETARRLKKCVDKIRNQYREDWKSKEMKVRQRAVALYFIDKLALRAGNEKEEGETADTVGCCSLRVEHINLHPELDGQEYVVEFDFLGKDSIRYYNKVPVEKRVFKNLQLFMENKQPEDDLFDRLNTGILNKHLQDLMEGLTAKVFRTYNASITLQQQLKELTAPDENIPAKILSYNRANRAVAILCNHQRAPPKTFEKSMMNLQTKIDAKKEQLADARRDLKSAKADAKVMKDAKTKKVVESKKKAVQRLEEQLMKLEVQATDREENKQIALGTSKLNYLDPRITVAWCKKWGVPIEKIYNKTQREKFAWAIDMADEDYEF
Description: Topoisomerase I-Mediated DNA Cleavage Reactions Using 3′-End-labeled 161 BP Plasmid DNA
The 161 bp fragment from pBluescript SK(−) phagemid DNA (Stratagene, La Jolla, Calif.) was cleaved with the restriction endonuclease Pvu II and Hind III (New England Biolabs, Beverly, Mass.) in supplied NE buffer 2 (10 μL reactions) for 1 h at 37° C., separated by electrophoresis in a 1% agarose gel made in 1×TBE buffer. The 161 bp fragment was eluted from the gel slice (centrilutor by Amicon) and concentrated in a centricon 50 centrifugal concentrator (Amicon, Beverly, Mass.). Approximately 200 ng of the fragment was 3′-end-labeled at the Hind III site by fill-in reaction with [alpha-^32P]-dCTP and 0.5 mM dATP, dGTP, and dTTP, in React 2 buffer (50 mM Tris-HCl, pH 8.0, […], 50 mM NaCl) with 0.5 units of DNA polymerase I (Klenow fragment). Labeling reactions were followed by phenol-chloroform extraction and ethanol precipitation. The resulting 161 bp 3′-endlabeled DNA fragment was resuspended in water. Aliquots (approximately 50,000 dpm/reaction) were incubated with topoisomerase I at 30° C. for 15 min in the presence of the indicated drug. Reactions were terminated by adding 0.5% SDS. After ethanol precipitation, the samples were resuspended in loading buffer (80% formamide, 10 mM sodium hydroxide, 1 mM sodium EDTA, 0.1% xylene cyanol, and 0.1% bromophenol blue, pH 8.0), and separated in a denaturing gel (16% polyacrylamide, 7 M urea) run at 51° C. The gel was dried and visualized by using a Phosphoimager and ImageQuant software (Molecular Dynamics, Sunnyvale, Calif.).

HCT-116 = assay: NCI human cancer cell line screen (COMPARE screening), Colon HCT-116; type: cell-based
From the text: as §1

human topoisomerase II = assay: Topoisomerase II-mediated DNA cleavage assay (5'-end-labeled human c-myc DNA); type: biochemical
SN12C = assay: NCI human cancer cell line screen (COMPARE screening), Renal SN12C; type: cell-based
From the text: as §1

DU-145 = assay: NCI human cancer cell line screen (COMPARE screening), Prostate DU-145; type: cell-based
From the text: as §1

[1] = molecular target: T2, topoisomerase I cleavage complexes (Homo sapiens, UniProt P11387); assay: Salt reversal of topoisomerase I cleavage complexes; type: biochemical; conditions: increasing salt concentration
T2 sequence (P11387 1-765): T1 sequence (P11387 1-765)

[2] = tested on: approximately 55 different cancer cell lines of diverse tumor origins; assay: NCI screen mean graph midpoint over all cell lines tested; type: cell-based, human; conditions: for IC50: average GI50 for all cell lines tested (approximately 55), values outside test range taken as 10^-8 or 10^-4 molar, read-out: MGM (mean graph midpoint)
From the text: as §1

supercoiled SV40 DNA = assay: SV40 DNA unwinding assay; type: biochemical; conditions: at higher concentrations
Description: With some of the compounds (e.g. 27), the activity seemed to increase initially as the concentration was increased, but then it declined at higher concentrations. […] The unwinding assay using supercoiled DNA in the presence of topoisomerase I is a simple procedure to detect DNA intercalation.
After electrophoresis, DNA bands were stained in 10 μg/mL of ethidium bromide and visualized by transillumination with UV light (300 nm).

HOP-62 = assay: NCI human cancer cell line screen (COMPARE screening), Lung HOP-62; type: cell-based
From the text: as §1

UACC-62 = assay: NCI human cancer cell line screen (COMPARE screening), Melanoma UACC-62; type: cell-based
From the text: as §1

OVCAR-3 = assay: NCI human cancer cell line screen (COMPARE screening), Ovarian OVCAR-3; type: cell-based
From the text: as §1

SF-539 = assay: NCI human cancer cell line screen (COMPARE screening), CNS SF-539; type: cell-based
From the text: as §1

[3] = Homo sapiens, MDA-MB-435, concentration causing 50% growth inhibition, read-out: Cytotoxicity (G150 in μM) Breast MDA-MB-435
[4] = Homo sapiens, HCT-116, concentration causing 50% growth inhibition, read-out: Cytotoxicity (G150 in μM) Colon HCT-116
[5] = Homo sapiens, SN12C, concentration causing 50% growth inhibition, read-out: Cytotoxicity (G150 in μM) Renal SN12C
[6] = Homo sapiens, DU-145, concentration causing 50% growth inhibition, read-out: Cytotoxicity (G150 in μM) Prostate DU-145
[7] = Homo sapiens, HOP-62, concentration causing 50% growth inhibition, read-out: Cytotoxicity (G150 in μM) Lung HOP-62
[8] = Homo sapiens, UACC-62, concentration causing 50% growth inhibition, read-out: Cytotoxicity (G150 in μM) Melanoma UACC-62
[9] = Homo sapiens, OVCAR-3, concentration causing 50% growth inhibition, read-out: Cytotoxicity (G150 in μM) Ovarian OVCAR-3
[10] = Homo sapiens, SF-539, concentration causing 50% growth inhibition, read-out: Cytotoxicity (G150 in μM) CNS SF-539

| SMILES | activity in the topoisomerase I cleavage assay (in words) (topoisomerase I) | induction of topoisomerase II cleavage complexes (human topoisomerase II) | reversal of induced cleavage sites by salt treatment [1] | IC50 (MDA-MB-435) [µM] | IC50 (HCT-116) [µM] | IC50 (DU-145) [µM] | IC50 (HOP-62) [µM] | IC50 (OVCAR-3) [µM] | IC50 (MDA-MB-435; [3]) [µM] | Top 1 Cleavage (topoisomerase I) | IC50 (HCT-116; [4]) [µM] | IC50 (SN12C; [5]) [µM] | IC50 (DU-145; [6]) [µM] | IC50 ([2]; Homo sapiens) [µM] | IC50 (HOP-62; [7]) [µM] | IC50 (UACC-62; [8]) [µM] | IC50 (OVCAR-3; [9]) [µM] | IC50 [2] [µM] | IC50 (SF-539; [10]) [µM] | other results |
| --- | --- | --- | --- | --- | --- | --- | --- | --- | --- | --- | --- | --- | --- | --- | --- | --- | --- | --- | --- | --- |
| O=C(O)CCCn1c2c(c3ccccc3c1=O)C(=O)c1ccccc1-2 [Compound 26, 6-(3-Carboxy-1-propyl)-5,6-dihydro-5,11-diketo-11H-indeno[1,2-c]isoquinoline] | most potent; also recorded: rival the topoisomerase activity of 1 | induced topoisomerase II cleavage complexes | reversed by salt treatment |  |  |  |  |  | > 100 | ++ (those compounds having greater than 50% of the activity of 1 μM camptothecin) | 40 | 27 | 48 | 48 | 87 | 73 | > 100 |  |  | DNA unwinding at higher concentrations (supercoiled SV40 DNA): does unwind DNA |
| COc1cc2c(cc1OC)[C@H]1C(=O)c3cc4c(cc3[C@H]1N(C)C2=O)OCO4 (relative stereo) [Compound 20, cis-5,6,12,13-Tetrahydro-2,3-dimethoxy-6-methyl-5,11-dioxo-8,9(methylenedioxy)-(11H)indeno[1,2-c]isoquinoline] | weak | no effect |  | 17 | 2 | 4.1 | 9.4 | 6.7 |  | ± (those compounds having less than 20% of the activity of 1 μM camptothecin) |  |  |  |  |  |  |  | 5 |  | IC50 (SF-539): 3.1 µM; IC50 (SN12C): 2.1 µM; cytotoxicity (MGM) relative to lead compound 1 [2]: lower MGM than the lead compound 1; IC50 (UACC-62): 0.42 µM |
| O=C1c2ccccc2-c2c1c1ccccc1c(=O)n2CCCCO [Compound 7, 5,6-Dihydro-6-(4-hydroxy-1-butyl)-5,11-diketo-11H-indeno[1,2-c]isoquinoline] |  | weak topoisomerase II activity |  |  |  |  |  |  | > 100 | + (those compounds having between 20% and 50% of the activity of 1 μM camptothecin) | 3.2 | 7.4 | > 100 | 16 | 13 | 4.4 | 74 |  | 4.6 | cytotoxicity (MGM) relative to lead compound 1 ([2]; comparison in words): lower MGM than the lead compound 1 |
| CC[C@@]1(O)C(=O)OCc2c1cc1n(c2=O)Cc2cc3ccccc3nc2-1 [Compound 34, camptothecin, reference compound] |  |  | reversed by salt treatment |  |  |  |  |  |  |  |  |  |  |  |  |  |  |  |  |  |
| CCN1C(=O)c2cc(OC)c(OC)cc2[C@H]2C(=O)c3cc4c(cc3[C@H]21)OCO4 (relative stereo) [Compound 21, cis-6-Ethyl-5,6,12,13-tetrahydro-2,3-dimethoxy-5,11-dioxo-8,9-(methylene-dioxy)-11H-indeno[1,2-c]isoquinoline] |  | no effect |  | 0.45 | 0.29 | 0.42 | 0.29 | 0.44 |  | ± (those compounds having less than 20% of the activity of 1 μM camptothecin) |  |  |  |  |  |  |  | 0.81 |  | cytotoxicity (MGM) relative to lead compound 1 [2]: lower MGM than the lead compound 1; IC50 (UACC-62): 0.18 µM |

Now from value to molecule, other results behind:

| activity in the topoisomerase I cleavage assay (in words) (topoisomerase I) | induction of topoisomerase II cleavage complexes (human topoisomerase II) | reversal of induced cleavage sites by salt treatment [1] | IC50 (MDA-MB-435) [µM] | IC50 (HCT-116) [µM] | IC50 (DU-145) [µM] | IC50 (HOP-62) [µM] | IC50 (OVCAR-3) [µM] | SMILES | IC50 (MDA-MB-435; [3]) [µM] | Top 1 Cleavage (topoisomerase I) | IC50 (HCT-116; [4]) [µM] | IC50 (SN12C; [5]) [µM] | IC50 (DU-145; [6]) [µM] | IC50 ([2]; Homo sapiens) [µM] | IC50 (HOP-62; [7]) [µM] | IC50 (UACC-62; [8]) [µM] | IC50 (OVCAR-3; [9]) [µM] | IC50 [2] [µM] | IC50 (SF-539; [10]) [µM] | other results |
| --- | --- | --- | --- | --- | --- | --- | --- | --- | --- | --- | --- | --- | --- | --- | --- | --- | --- | --- | --- | --- |
| very weak activity | no effect |  |  |  |  |  |  | CCn1c2c(c3cc(OC)c(OC)cc3c1=O)C(=O)c1cc3c(cc1-2)OCO3 [Compound 13k, 6-Ethyl-5,6-dihydro-5,11-diketo-2,3-dimethoxy-8,9-methylenedioxy-11H-indeno[1,2-c]isoquinoline] | 2.6 | ± (those compounds having less than 20% of the activity of 1 μM camptothecin) | 2.6 | 3.6 | 2.3 | 2.4 | 2.2 | 2.1 | 3 |  | 2 | cytotoxicity (MGM) relative to lead compound 1 ([2]; comparison in words): lower MGM than the lead compound 1 |
| rival the topoisomerase activity of 1 | no effect | reversed by salt treatment | 5.2 | 2.3 | 3.2 | 3.4 | 6.6 | C=CCn1c2c(c3cc(OC)c(OC)cc3c1=O)C(=O)c1cc3c(cc1-2)OCO3 [Compound 13c, 6-Allyl-2,3-dimethoxy-5,6-dihydro-5,11-oxo-8,9-(methylenedioxy)-11H-indeno[1,2-c]isoquinoline] |  | + (those compounds having between 20% and 50% of the activity of 1 μM camptothecin) |  |  |  |  |  |  |  | 4.2 |  | IC50 (SF-539): 2.2 µM; IC50 (SN12C): 2.6 µM |
|  | no effect |  |  |  |  |  |  | CCCCn1c2c(c3ccccc3c1=O)C(=O)c1cc3c(cc1-2)OCO3 [Compound 13b, 6-(1-Butyl)-5,6-dihydro-5,11-diketo-8,9-methylenedioxy-11H-indeno[1,2-c]isoquinoline] | > 100 | + (those compounds having between 20% and 50% of the activity of 1 μM camptothecin) | 2.9 | 37 | 38 | 30 | 17 | 8.2 | 94 |  | 9 |  |
